Data reported in patent US20210290676A1, “IMPROVING THE EFFICACY AND SAFETY OF ADOPTIVE CELLULAR THERAPIES” (University of Southern California, priority 2018, published 2021).

Assays:
Format in all cases: cell-based, human
[1] = tested on: Pgp+ (DiOC2(3)-dye effluxing) T cells; experiment: DiOC2(3) dye efflux flow cytometry of inhibitor-treated T cells; settings: treatment for 13 days, IL2 + CD3 and CD28 antibodies
Description: (§1) The use of P-glycoprotein (Pgp)-mediated efflux of DiOC2(3) to isolate stem like T cells for adoptive cellular therapy has been described in application no. […] In the following examples, DiOC2(3) staining was used to study the effect of different inhibitors on generation of stem like T cells.
(§2) DAY 0: Blood was obtained from unidentified donor. After RBC lysis, PBMC were collected using Ficoll-Hypaque separation. […] T cells were cultured in three different conditions: • 1. XVIVO 15 medium (Lonza) with IL2 50 IU/ml, CD3 antibody (30 ng/ml) and CD28 antibody (30 ng/ml). • 2. XVIVO 15 medium (Lonza) with CD3 antibody (30 ng/ml) and CD28 antibody (30 ng/ml). • 3. XVIVO 15 medium (Lonza) with IL2 50 IU/ml DAY 1: Cells were plated in a 6-well plate at a density of 1 million cells in 2 ml/of media (as described above) and treated with different inhibitors
(§3) The cell growth medium was changed in 6-well plates and fresh drugs were added at same concentration for one more week.
(§4) […] (DAY 11): Culture medium was changed and fresh drugs were added in 6-well plates.
(§5) Subsequently, cells were washed with RPMI medium and dye was effluxed at 37° C. for 90 min. Cells were washed with […], stained with CD62L-APC (5 μl/100 μl/sample) at 4° C. for 1 h, washed twice with PBS+1% FBS and analyzed on flow cytometer to check if these drugs treatment leads to increase in Pgp+/CD62L positive population.
(§6) Day 0: Blood was obtained from unidentified donor. After RBC lysis, PBMC were collected using Ficoll-Hypaque separation. 200 million T cells were isolated from PBMCs using CD3 microbeads. T cells were cultured overnight in XVIVO 15 medium (Lonza) with IL2 (50 IU/ml), 30 ng/ml of CD3 and CD28 antibodies
(§7) Day 1: Cells were plated in 24-well plates at a density of 0.3 million cells/ml in each well and treated with different drugs.
(§8) On day 7, culture medium was replaced with fresh medium with fresh drugs.
(§9) On day 13, culture medium was replaced with fresh medium and fresh drugs. Half of the cells were transferred to 6-well plates.
(§10) Day 14: An aliquot of cells with all the treatments listed above (for 13 days) was used to stain the cells with DiOC2(3) (60 ng/ml in RPMI medium) at 4° C. for 40 min, washed with RPMI medium, DiOC2(3) dye was effluxed at 37° C. for 90 min, washed with PBS+1% FBS, stained with CD62L-APC antibody. CD62L is a marker for resting T cells. (5 μl/100 μl/sample) at 4° C. for 1 h, washed twice with PBS+1% FBS and analyzed on flow cytometer to check if these drugs are affecting the dye-effluxing or Pgp+ (i.e., DiOC2(3)-dull) T-cell population.

[2] = tested on: Pgp+ (DiOC2(3)-dye effluxing cells) and CD62L+ T cells; experiment: DiOC2(3) dye efflux plus CD62L-APC staining, flow cytometry of inhibitor-treated T cells; settings: treatment for 13 days, IL2 + CD3 and CD28 antibodies
Description: as §1, §2, §3, §4, §5, §6, §7, §8, §9, §10

[3] = tested on: CD8+CD45RA+CCR7+CD62L+ T cells; experiment: Flow cytometry for CD8, CD45RA, CCR7 and CD62L on inhibitor-treated T cells; settings: cells cultured for 14 days
Description: as §2
(§11) A second aliquot of the cells cultured for 13 days with all the treatments listed above (1-21) was washed with PBS+1% FBS, stained with CD8-PerCP, CD45RA-FITC, CCR7-PE and CD62L-APC (5% Y/100 μl/sample for each of 4 antibodies) at 4° C. for 1 h, washed twice with PBS+100 FBS and analyzed on flow cytometer to check if these drugs are enriching T stem cells showing surface expression of CD8+CD45RA+CCR7+CD62L+.
as §6, §7, §8, §9
as §11, with “14” for “13”, “above” for “above (1-21)”, “(5 ul/100 ul/sample” for “(5% Y/100 μl/sample”, “PBS+1%” for “PBS+100”, “enriching for” for “enriching”, “T” for “T stem”

[4] = tested on: CD45RA+CCR7+CD62L+ T cells; experiment: Flow cytometry for CD45RA, CCR7 and CD62L on inhibitor-treated T cells (all T cells); settings: cells cultured for 14 days
Description: as §2, §11, §6, §7, §8, §9
as §11, with “14” for “13”, “above” for “above (1-21)”, “(5 ul/100 ul/sample” for “(5% Y/100 μl/sample”, “PBS+1%” for “PBS+100”, “enriching for” for “enriching”, “T” for “T stem”

SMILES	p2: pgp+ from Live cells ([1]; 100 nM)	p2: pgp+ from Live cells ([1]; 500 nM)	p5: double +ve pgp+ and CD62L-APC+ from Live cells ([2]; 100 nM)	p5: double +ve pgp+ and CD62L-APC+ from Live cells ([2]; 500 nM)	GATE P4 CD8(PerCP)+, CD45RA(FITC)+, CCR7 (PE)+, CD62L(APC) ([3]; 100 nM) [%]	GATE P4 CD8(PerCP)+, CD45RA(FITC)+, CCR7 (PE)+, CD62L(APC) ([3]; 500 nM) [%]	GATE P6 CD45RA(FITC)+, CCR7 (PE)+, CD62L(APC) ([4]; 100 nM) [%]	GATE P6 CD45RA(FITC)+, CCR7 (PE)+, CD62L(APC) ([4]; 500 nM) [%]
Cc1ccc(Cl)c(Nc2ccccc2C(=O)O)c1Cl [MECLO]	22.22	20.11	3.74	3.72	57.65	75.78	53.02	66.64
O=C1CN=C(c2ccc[nH]2)c2cc(Cl)ccc2N1 [R05335]	14.71	16.22	2.55	2.3	–	79.9	–	69.95
CCN(c1cc(-c2ccc(CN3CCOCC3)cc2)cc(C(=O)NCc2c(C)cc(C)[nH]c2=O)c1C)C1CCOCC1 [TAZE]	42.9	–	14.5	–	59.72	–	52.24	–
